Test results published in PubChem BioAssay AID2060898 (Molecular Pharmacology Branch, DTP, NCI, 2025).

System: 616215-338-R-J1-PDC complex spheroid viability
Experiment: Anticancer human tumor 616215-338-R-J1-PDC patient-derived colon adenocarcinoma cell line growth inhibition [RAS]
Conditions: for IC50: curve of first compound; for viability, T/C: stronger effect = lower value
Outline: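 Multi-cell-type spheroids: tumor cells plus HUVEC endothelial cells and mesenchymal stem cells. RAS-pathway inhibitors were combined with targeted agents, each dosed in half-log steps down from clinical Cmax, or from 10 microM when Cmax was unknown.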

[1] = second compound 0.00316 µM, first compound 0.0316 µM
[2] = second compound 0.00316 µM, first compound 0.1 µM
[3] = second compound 0.00316 µM, first compound 0.316 µM
[4] = second compound 0.00316 µM, first compound 1 µM
[5] = second compound 0.00316 µM, first compound 3.16 µM
[6] = second compound 0.00316 µM, first compound 10 µM
[7] = second compound 0.01 µM, first compound 0.0316 µM
[8] = second compound 0.01 µM, first compound 0.1 µM
[9] = second compound 0.01 µM, first compound 0.316 µM
[10] = second compound 0.01 µM, first compound 1 µM
[11] = second compound 0.01 µM, first compound 3.16 µM
[12] = second compound 0.01 µM, first compound 10 µM
[13] = second compound 0.0316 µM, first compound 0.0316 µM
[14] = second compound 0.0316 µM, first compound 0.1 µM
[15] = second compound 0.0316 µM, first compound 0.316 µM
[16] = second compound 0.0316 µM, first compound 1 µM
[17] = second compound 0.0316 µM, first compound 3.16 µM
[18] = second compound 0.0316 µM, first compound 10 µM
[19] = second compound 0.1 µM, first compound 0.0316 µM
[20] = second compound 0.1 µM, first compound 0.1 µM
[21] = second compound 0.1 µM, first compound 0.316 µM
[22] = second compound 0.1 µM, first compound 1 µM
[23] = second compound 0.1 µM, first compound 3.16 µM
[24] = second compound 0.1 µM, first compound 10 µM
[25] = second compound 0.316 µM, first compound 0.0316 µM
[26] = second compound 0.316 µM, first compound 0.1 µM
[27] = second compound 0.316 µM, first compound 0.316 µM
[28] = second compound 0.316 µM, first compound 1 µM
[29] = second compound 0.316 µM, first compound 3.16 µM
[30] = second compound 0.316 µM, first compound 10 µM
[31] = second compound 1 µM, first compound 0.0316 µM
[32] = second compound 1 µM, first compound 0.1 µM
[33] = second compound 1 µM, first compound 0.316 µM
[34] = second compound 1 µM, first compound 1 µM
[35] = second compound 1 µM, first compound 3.16 µM
[36] = second compound 1 µM, first compound 10 µM
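Note: spheroids exposed to agents for seven days before viability readout.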
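Throughout, for viability, T/C: 100% = DMSO vehicle control viability.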

**Q.** What does the source list for CC1(O)CCCC1n1c(=O)c(C(F)F)cc2cnc(NC3CCN(S(C)(=O)=O)CC3)nc21 (centres undefined) + C=CC(=O)N1CCN(c2nc(OCC3CCCN3C)nc3c(F)c(-c4nc(N)cc(C)c4C(F)(F)F)c(Cl)cc23)C(C)C1?
**A.** IC50 (second compound 0.00316 µM): 295 nM; IC50 (second compound 0.01 µM): 1340 nM; IC50 (second compound 0.0316 µM): 1100 nM; IC50 (second compound 0.1 µM): 1130 nM; IC50 (second compound 0.316 µM): 1060 nM; IC50 (second compound 1 µM): 1180 nM; viability, T/C [1]: 115%; viability, T/C [2]: 125%; viability, T/C [3]: 45.5%; viability, T/C [4]: 52.3%; viability, T/C [5]: 46.1%; viability, T/C [6]: 3.51%; viability, T/C [7]: 124%; viability, T/C [8]: 115%; viability, T/C [9]: 49.8%; viability, T/C [10]: 60.2%; viability, T/C [11]: 49.4%; viability, T/C [12]: 3.84%; viability, T/C [13]: 113%; viability, T/C [14]: 113%; viability, T/C [15]: 50.3%; viability, T/C [16]: 51.6%; viability, T/C [17]: 48.7%; viability, T/C [18]: 1.4%; viability, T/C [19]: 111%; viability, T/C [20]: 114%; viability, T/C [21]: 58%; viability, T/C [22]: 55.4%; viability, T/C [23]: 39.6%; viability, T/C [24]: 1.02%; viability, T/C [25]: 117%; viability, T/C [26]: 107%; viability, T/C [27]: 54.8%; viability, T/C [28]: 49%; viability, T/C [29]: 44.5%; viability, T/C [30]: 1.06%; viability, T/C [31]: 117%; viability, T/C [32]: 108%; viability, T/C [33]: 58.1%; viability, T/C [34]: 53.2%; viability, T/C [35]: 46.3%; viability, T/C [36]: 2.1%

**Q.** Which IC50 (second compound 0.00316 µM) does the source give for CCC(CC)c1cc(NC2CCC(N)C2)n2nccc2n1 (centres undefined) + C=CC(=O)N1CCN(c2nc(OCC3CCCN3C)nc3c(F)c(-c4nc(N)cc(C)c4C(F)(F)F)c(Cl)cc23)C(C)C1 here?
**A.** The IC50 was 1770 nM.

**Q.** And the IC50 (second compound 0.01 µM)?
**A.** Its IC50 is 1800 nM.

**Q.** What about the IC50 (second compound 0.0316 µM) of the same molecule?
**A.** Its IC50 is 1790 nM.

**Q.** What about the IC50 (second compound 0.1 µM) of the same molecule?
**A.** Its IC50 is 1780 nM.

**Q.** And the IC50 (second compound 0.316 µM)?
**A.** Its IC50 is 1800 nM.

**Q.** And the IC50 (second compound 1 µM)?
**A.** Its IC50 is 1860 nM.

**Q.** And the viability, T/C [1]?
**A.** Its viability, T/C is 101%.

**Q.** And the viability, T/C [2]?
**A.** Its viability, T/C is 97.5%.

**Q.** What about the viability, T/C [3] of the same molecule?
**A.** Its viability, T/C is 92.6%.

**Q.** What about the viability, T/C [4] of the same molecule?
**A.** The viability, T/C was 97.8%.

**Q.** And the viability, T/C [5]?
**A.** The viability, T/C was 0.65%.

**Q.** And the viability, T/C [6]?
**A.** The viability, T/C was 2.31%.

**Q.** What about the viability, T/C [7] of the same molecule?
**A.** The viability, T/C was 100%.

**Q.** What about the viability, T/C [8] of the same molecule?
**A.** The viability, T/C was 102%.

**Q.** What about the viability, T/C [9] of the same molecule?
**A.** The viability, T/C was 96.6%.

**Q.** And the viability, T/C [10]?
**A.** Its viability, T/C is 102%.

**Q.** And the viability, T/C [11]?
**A.** The viability, T/C was 0.87%.

**Q.** What about the viability, T/C [12] of the same molecule?
**A.** The viability, T/C was 2.95%.

**Q.** What about the viability, T/C [13] of the same molecule?
**A.** The viability, T/C was 108%.

**Q.** What about the viability, T/C [14] of the same molecule?
**A.** Its viability, T/C is 100%.

**Q.** What about the viability, T/C [15] of the same molecule?
**A.** Its viability, T/C is 90.2%.

**Q.** And the viability, T/C [16]?
**A.** The viability, T/C was 105%.

**Q.** What about the viability, T/C [17] of the same molecule?
**A.** Its viability, T/C is 0.34%.

**Q.** And the viability, T/C [18]?
**A.** The viability, T/C was 0.25%.

**Q.** What about the viability, T/C [19] of the same molecule?
**A.** The viability, T/C was 103%.

**Q.** And the viability, T/C [20]?
**A.** The viability, T/C was 95.2%.

**Q.** And the viability, T/C [21]?
**A.** The viability, T/C was 96.9%.

**Q.** What about the viability, T/C [22] of the same molecule?
**A.** Its viability, T/C is 104%.

**Q.** What about the viability, T/C [23] of the same molecule?
**A.** Its viability, T/C is 0.59%.

**Q.** And the viability, T/C [24]?
**A.** Its viability, T/C is 0.27%.

**Q.** What about the viability, T/C [25] of the same molecule?
**A.** Its viability, T/C is 107%.

**Q.** What about the viability, T/C [26] of the same molecule?
**A.** The viability, T/C was 90.1%.

**Q.** What about the viability, T/C [27] of the same molecule?
**A.** The viability, T/C was 101%.

**Q.** What about the viability, T/C [28] of the same molecule?
**A.** Its viability, T/C is 105%.

**Q.** What about the viability, T/C [29] of the same molecule?
**A.** Its viability, T/C is 1.41%.

**Q.** What about the viability, T/C [30] of the same molecule?
**A.** Its viability, T/C is 1.72%.

**Q.** What about the viability, T/C [31] of the same molecule?
**A.** The viability, T/C was 106%.

**Q.** And the viability, T/C [32]?
**A.** Its viability, T/C is 106%.

**Q.** What about the viability, T/C [33] of the same molecule?
**A.** Its viability, T/C is 96.5%.

**Q.** What about the viability, T/C [34] of the same molecule?
**A.** Its viability, T/C is 114%.

**Q.** And the viability, T/C [35]?
**A.** Its viability, T/C is 2.76%.

**Q.** What about the viability, T/C [36] of the same molecule?
**A.** The viability, T/C was 2.4%.
